Data as given in BindingDB's records for patent US20230322822 (Chengdu Di''Ao Jiuhong Pharmaceutical Factory, 2023).
pIC50: −log10 of the molar value.

What was measured:
[1] = target: Epidermal growth factor receptor [T790M,L858R] (Homo sapiens, UniProt P00533, L858R/T790M); assay: EGFR kinase Enzymatic Activity Test 1
Experimental: (§1) To assess the effect of compounds on the activity of wild-type and mutant EGFR kinases, kinase activity was tested by measuring ATP consumption in an enzymatic reaction using an ADP-Glo (Promega Corporation) kit. Samples to be tested were dissolved in DMSO and diluted in a gradient. In a microplate, an EGFR kinase, a reaction buffer (containing Tris-HCl with a pH of 7.5, MgCl2, DTT and BSA), a kinase substrate Poly(Glu4, Tyr1) and a sample (a total volume of 20 μL per well) were added per well, while a blank control (no enzyme and sample) and a negative control (no sample) were set up; incubated for 15 minutes at 23° C.; added with 5 μL of ATP, and reacted at 23° C. for 60 minutes; added with ADP-Glo Reagent, and continuously reacted for 40 minutes at room temperature to inactivate the redundant ATP; then, added with a Kinase Detection Reagent, and reacted at room temperature for 30 minutes, then the chemiluminescence intensity L of each well was measured. […] IC50 values were calculated according to the above calculation using 4Parameter Logistic Model in XLfit software.

[2] = target: Epidermal growth factor receptor (Homo sapiens, UniProt P00533); assay: EGFR kinase Enzymatic Activity Test 1
Epidermal growth factor receptor, sequence (P00533 whole entry): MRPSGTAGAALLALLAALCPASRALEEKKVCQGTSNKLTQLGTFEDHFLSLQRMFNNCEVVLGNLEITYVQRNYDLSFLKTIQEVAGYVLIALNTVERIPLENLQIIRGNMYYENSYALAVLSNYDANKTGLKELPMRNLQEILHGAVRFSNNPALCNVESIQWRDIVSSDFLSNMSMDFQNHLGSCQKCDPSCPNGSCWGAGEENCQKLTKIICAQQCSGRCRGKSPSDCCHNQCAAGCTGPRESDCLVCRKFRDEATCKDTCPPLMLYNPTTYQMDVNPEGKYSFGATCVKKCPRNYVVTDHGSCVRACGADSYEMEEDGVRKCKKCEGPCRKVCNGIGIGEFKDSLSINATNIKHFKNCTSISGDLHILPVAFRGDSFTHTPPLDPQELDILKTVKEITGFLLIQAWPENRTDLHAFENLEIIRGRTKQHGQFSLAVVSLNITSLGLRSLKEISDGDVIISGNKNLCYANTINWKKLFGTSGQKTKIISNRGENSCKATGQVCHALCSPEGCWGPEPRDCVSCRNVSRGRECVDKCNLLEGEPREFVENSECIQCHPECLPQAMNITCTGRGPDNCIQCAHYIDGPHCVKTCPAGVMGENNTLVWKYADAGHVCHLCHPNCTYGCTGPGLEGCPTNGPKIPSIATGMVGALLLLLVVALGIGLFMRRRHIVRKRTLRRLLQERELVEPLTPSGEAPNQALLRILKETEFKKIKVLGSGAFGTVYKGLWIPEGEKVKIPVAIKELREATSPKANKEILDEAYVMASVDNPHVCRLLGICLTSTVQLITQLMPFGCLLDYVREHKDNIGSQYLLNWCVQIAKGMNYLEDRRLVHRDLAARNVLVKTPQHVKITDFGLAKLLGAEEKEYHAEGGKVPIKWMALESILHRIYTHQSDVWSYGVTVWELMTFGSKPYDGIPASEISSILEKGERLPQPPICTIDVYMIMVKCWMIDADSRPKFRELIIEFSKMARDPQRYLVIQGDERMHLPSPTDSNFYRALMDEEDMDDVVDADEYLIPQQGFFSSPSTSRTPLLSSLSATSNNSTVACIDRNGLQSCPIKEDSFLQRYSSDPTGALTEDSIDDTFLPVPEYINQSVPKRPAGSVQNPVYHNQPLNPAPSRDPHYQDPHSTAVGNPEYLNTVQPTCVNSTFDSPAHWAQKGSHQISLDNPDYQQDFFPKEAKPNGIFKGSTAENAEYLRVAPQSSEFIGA
Experimental: as §1

Epidermal growth factor receptor [T790M,L858R], sequence (P00533 25-1210 T790M/L858R limits assumed): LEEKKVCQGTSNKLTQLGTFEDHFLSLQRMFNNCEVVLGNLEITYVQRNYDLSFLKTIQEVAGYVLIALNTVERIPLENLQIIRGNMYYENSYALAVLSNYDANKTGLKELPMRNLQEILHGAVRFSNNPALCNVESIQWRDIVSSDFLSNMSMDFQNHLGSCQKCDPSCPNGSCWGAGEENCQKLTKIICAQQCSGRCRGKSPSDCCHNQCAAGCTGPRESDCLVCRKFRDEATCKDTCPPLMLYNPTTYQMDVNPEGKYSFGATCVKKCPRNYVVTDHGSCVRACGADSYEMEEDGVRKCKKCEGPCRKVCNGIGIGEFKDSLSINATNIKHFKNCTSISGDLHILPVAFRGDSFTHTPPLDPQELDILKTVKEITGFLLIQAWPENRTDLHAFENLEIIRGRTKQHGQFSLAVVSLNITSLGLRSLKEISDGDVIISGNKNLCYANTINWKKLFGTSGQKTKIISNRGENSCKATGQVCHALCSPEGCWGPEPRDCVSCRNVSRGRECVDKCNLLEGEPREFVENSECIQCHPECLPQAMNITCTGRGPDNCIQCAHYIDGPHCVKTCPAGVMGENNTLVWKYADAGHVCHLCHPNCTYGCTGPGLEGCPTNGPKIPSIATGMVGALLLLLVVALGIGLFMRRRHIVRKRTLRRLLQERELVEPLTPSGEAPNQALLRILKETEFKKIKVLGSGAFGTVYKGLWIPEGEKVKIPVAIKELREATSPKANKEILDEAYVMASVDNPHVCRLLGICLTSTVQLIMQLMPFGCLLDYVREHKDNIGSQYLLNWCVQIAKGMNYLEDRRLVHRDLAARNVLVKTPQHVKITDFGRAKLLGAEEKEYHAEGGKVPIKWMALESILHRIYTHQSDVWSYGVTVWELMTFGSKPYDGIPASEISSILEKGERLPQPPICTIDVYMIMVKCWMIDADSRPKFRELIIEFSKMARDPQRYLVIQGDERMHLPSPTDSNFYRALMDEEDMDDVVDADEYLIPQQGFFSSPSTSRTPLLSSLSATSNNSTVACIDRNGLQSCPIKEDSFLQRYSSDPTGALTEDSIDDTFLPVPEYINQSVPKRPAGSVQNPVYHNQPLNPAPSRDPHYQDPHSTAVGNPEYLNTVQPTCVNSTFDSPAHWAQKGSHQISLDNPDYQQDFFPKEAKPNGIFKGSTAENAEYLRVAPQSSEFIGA

pIC50 [1]: 7.61 | pIC50 [2]: 6.77
SMILES: COc1cc(N2CCC(N3CCN(C)CC3)CC2)c(C)cc1Nc1ncc(Br)c(Nc2ccc(C)cc2P(C)(C)=O)n1 [US20230322822, Compound 2]
